Results on 30 molecules are retold here after ChEMBL document CHEMBL5625220, “Discovery of anti-neuroinflammatory agents from 1,4,5,6-tetrahydrobenzo[2,3]oxepino[4,5-d]pyrimidin-2-amine derivatives by regulating microglia polarization” (Eur J Med Chem, 2023).

Calls of active or inactive are those of the source. The calls are words filed in the database; no cut-off is given here.

Data set [1] is described as follows: Cytotoxicity against mouse BV-2 cells assessed as survival rate at 5 uM incubated for 24 hrs by CCK8 assay relative to control. Particulars: read-out: Survival. Type of data set: toxicity, cell-based. (Tetrazolium assays rely on reduction of a dye to a coloured formazan, in cell work by metabolically active cells.)
In data set [2] the test system is BV-2. Nature of the data set: Anti-inflammatory activity in mouse BV-2 cells assessed as inhibition of LPS-induced TNF-alpha production at 5 uM preincubated with LPS for 2 hrs followed by compound addition and measured after 24 hrs by ELISA relative to control. The class given is functional. Background: ELISA stands for enzyme-linked immunosorbent assay.
The test system of data set [3] is BV-2. Nature of the data set: Anti-inflammatory activity in mouse BV-2 cells assessed as inhibition of LPS-induced TNF-alpha production at 2.5 ug/ml preincubated with LPS for 2 hrs followed by compound addition and measured after 24 hrs by ELISA relative to control. The class given is functional.
The subject of data set [4] is BV-2. Nature of the data set: Anti-neuroinflammatory activity in mouse BV-2 cells assessed as microglial polarization into M2 phenotype by measuring increase in CD206 expression preincubated with LPS for 2 hrs followed by compound addition and measured after 24 hrs by immunofluorescence staining based confocal microscopic analysis. Type of data set: functional, cell-based.

In data set [5] the test system is BV-2. Nature of the data set: Anti-neuroinflammatory activity in mouse BV-2 cells assessed as microglial polarization into M2 phenotype by measuring decrease in iNOS expression preincubated with LPS for 2 hrs followed by compound addition and measured after 24 hrs by immunofluorescence staining based confocal microscopic analysis. The class given is functional, cell-based.

Data set [6] deals with BV-2. Nature of the data set: Induction of microglial polarization to M2 phenotype in mouse BV-2 cells assessed as decrease in number of M1 phenotype microglial cells incubated for 24 hrs by flow cytometric analysis. Type of data set: functional, cell-based.
Data set [7] has as its system BV-2. Nature of the data set: Induction of microglial polarization to M2 phenotype in mouse BV-2 cells assessed as increase in number of M2 phenotype microglial cells incubated for 24 hrs by flow cytometric analysis. Type of data set: functional, cell-based. On the technique in general: A flow cytometer gives signals particle by particle.
The subject of data set [8] is BV-2. Nature of the data set: Anti-neuroinflammatory activity in LPS-induced mouse BV-2 cells assessed as decrease in iNOS labeled microglial cells preincubated with LPS for 2 hrs followed by compound addition and measured after 24 hrs by flow cytometric analysis. Type of data set: functional, cell-based.
For data set [9], the system named is BV-2. In words: Anti-neuroinflammatory activity in LPS-induced mouse BV-2 cells assessed as decrease in CD86 labeled microglial cells preincubated with LPS for 2 hrs followed by compound addition and measured after 24 hrs by flow cytometric analysis. Type of data set: functional, cell-based.
Data set [10] deals with BV-2. Nature of the data set: Anti-neuroinflammatory activity in LPS-induced mouse BV-2 cells assessed as increase in CD206 labeled microglial cells preincubated with LPS for 2 hrs followed by compound addition and measured after 24 hrs by flow cytometric analysis. Type of data set: functional, cell-based.
Data set [11] concerns BV-2. In words: Anti-neuroinflammatory activity in LPS-induced mouse BV-2 cells assessed as increase in Arg-1 labeled microglial cells preincubated with LPS for 2 hrs followed by compound addition and measured after 24 hrs by flow cytometric analysis. Type of data set: functional, cell-based.
In data set [12] the test system is BV-2. Nature of the data set: Effect on TNF-alpha expression in mouse BV-2 cells incubated for 24 hrs by ELISA. Type of data set: functional, cell-based.
Data set [13] deals with BV-2. Nature of the data set: Effect on IL-18 expression in mouse BV-2 cells incubated for 24 hrs by ELISA. The class given is functional, cell-based.
Data set [14] deals with BV-2. Nature of the data set: Effect on IL-1beta expression in mouse BV-2 cells incubated for 24 hrs by ELISA. The class given is functional, cell-based.
Data set [15] deals with BV-2. Nature of the data set: Effect on IL-10 expression in mouse BV-2 cells incubated for 24 hrs by ELISA. The class given is functional, cell-based.
The test system of data set [16] is BV-2. Nature of the data set: Anti-neuroinflammatory activity in LPS-induced mouse BV-2 cells assessed as decrease in TNF-alpha secretion preincubated with LPS for 2 hrs followed by compound addition and measured after 24 hrs by ELISA. The class given is functional, cell-based.
For data set [17], the system named is BV-2. Nature of the data set: Anti-neuroinflammatory activity in LPS-induced mouse BV-2 cells assessed as decrease in IL-1beta secretion preincubated with LPS for 2 hrs followed by compound addition and measured after 24 hrs by ELISA. The class given is functional, cell-based.
Data set [18] concerns BV-2. In words: Anti-neuroinflammatory activity in LPS-induced mouse BV-2 cells assessed as decrease in IL-18 secretion preincubated with LPS for 2 hrs followed by compound addition and measured after 24 hrs by ELISA. Type of data set: functional, cell-based.
Data set [19] deals with BV-2. In words: Anti-neuroinflammatory activity in LPS-induced mouse BV-2 cells assessed as increase in IL-10 secretion preincubated with LPS for 2 hrs followed by compound addition and measured after 24 hrs by ELISA. The class given is functional, cell-based.
Data set [20] relates to BV-2. Nature of the data set: Effect on NLRP3 expression in mouse BV-2 cells incubated for 24 hrs by Western blot analysis. The class given is functional, cell-based.
Data set [21] has as its system BV-2. In words: Effect on ASC expression in mouse BV-2 cells incubated for 24 hrs by Western blot analysis. Type of data set: functional, cell-based.
For data set [22], the system named is BV-2. In words: Effect on caspase-1 expression in mouse BV-2 cells incubated for 24 hrs by Western blot analysis. Type of data set: functional, cell-based.
Data set [23] addresses NACHT, LRR and PYD domains-containing protein 3 (Mus musculus) (UniProt Q8R4B8). Nature of the data set: Inhibition of NLRP3 inflammasome formation in LPS-stimulated mouse BV-2 cells assessed as downregulation of NLRP3 protein expression preincubated with LPS for 2 hrs followed by compound addition and measured after 24 hrs by Western blot analysis. The class given is cell-based.

Data set [24] shares this target. In words: Inhibition of NLRP3 inflammasome formation in LPS-stimulated mouse BV-2 cells assessed as downregulation of ASC protein expression preincubated with LPS for 2 hrs followed by compound addition and measured after 24 hrs by Western blot analysis. Type of data set: cell-based.
The target is the same in data set [25]. Nature of the data set: Inhibition of NLRP3 inflammasome formation in LPS-stimulated mouse BV-2 cells assessed as downregulation of caspase-1 protein expression preincubated with LPS for 2 hrs followed by compound addition and measured after 24 hrs by Western blot analysis. Type of data set: cell-based.
Data set [26] deals with BV-2. Nature of the data set: Downregulation of PKM2 expression in LPS-stimulated mouse BV-2 cells preincubated with LPS for 2 hrs followed by compound addition and measured after 24 hrs by Western blot analysis. Type of data set: functional, cell-based.
The test system of data set [27] is BV-2. In words: Downregulation of PKM2 expression in LPS-stimulated mouse BV-2 cells preincubated with LPS for 2 hrs followed by compound addition and measured after 24 hrs by immunofluorescence staining based confocal microscopic analysis. The class given is functional, cell-based.
Data set [28] deals with Mus musculus. In words: Anti-inflammatory activity in cuprizone fed C57BL/6 mouse model assessed as increase in remyelination in corpus callosum at 5 mg/kg, ip pretreated with cuprizone for 6 weeks followed by compound administration for 2 weeks by LFB staining based analysis. The class given is functional, organism-based.
Data set [29] deals with Mus musculus. In words: Anti-inflammatory activity in cuprizone fed C57BL/6 mouse model assessed as increase in CD206 expression in corpus callosum at 5 mg/kg, ip pretreated with cuprizone for 6 weeks followed by compound administration for 2 weeks by immunofluorescence staining based confocal microscopic analysis. The class given is functional, organism-based.
The test system of data set [30] is Mus musculus. Nature of the data set: Anti-inflammatory activity in cuprizone fed C57BL/6 mouse model assessed as decrease in iNOS expression in corpus callosum at 5 mg/kg, ip pretreated with cuprizone for 6 weeks followed by compound administration for 2 weeks by immunofluorescence staining based confocal microscopic analysis. Type of data set: functional, organism-based.

Sequence of NACHT, LRR and PYD domains-containing protein 3 (Mus musculus) (Q8R4B8 whole entry, the tested form may be a part): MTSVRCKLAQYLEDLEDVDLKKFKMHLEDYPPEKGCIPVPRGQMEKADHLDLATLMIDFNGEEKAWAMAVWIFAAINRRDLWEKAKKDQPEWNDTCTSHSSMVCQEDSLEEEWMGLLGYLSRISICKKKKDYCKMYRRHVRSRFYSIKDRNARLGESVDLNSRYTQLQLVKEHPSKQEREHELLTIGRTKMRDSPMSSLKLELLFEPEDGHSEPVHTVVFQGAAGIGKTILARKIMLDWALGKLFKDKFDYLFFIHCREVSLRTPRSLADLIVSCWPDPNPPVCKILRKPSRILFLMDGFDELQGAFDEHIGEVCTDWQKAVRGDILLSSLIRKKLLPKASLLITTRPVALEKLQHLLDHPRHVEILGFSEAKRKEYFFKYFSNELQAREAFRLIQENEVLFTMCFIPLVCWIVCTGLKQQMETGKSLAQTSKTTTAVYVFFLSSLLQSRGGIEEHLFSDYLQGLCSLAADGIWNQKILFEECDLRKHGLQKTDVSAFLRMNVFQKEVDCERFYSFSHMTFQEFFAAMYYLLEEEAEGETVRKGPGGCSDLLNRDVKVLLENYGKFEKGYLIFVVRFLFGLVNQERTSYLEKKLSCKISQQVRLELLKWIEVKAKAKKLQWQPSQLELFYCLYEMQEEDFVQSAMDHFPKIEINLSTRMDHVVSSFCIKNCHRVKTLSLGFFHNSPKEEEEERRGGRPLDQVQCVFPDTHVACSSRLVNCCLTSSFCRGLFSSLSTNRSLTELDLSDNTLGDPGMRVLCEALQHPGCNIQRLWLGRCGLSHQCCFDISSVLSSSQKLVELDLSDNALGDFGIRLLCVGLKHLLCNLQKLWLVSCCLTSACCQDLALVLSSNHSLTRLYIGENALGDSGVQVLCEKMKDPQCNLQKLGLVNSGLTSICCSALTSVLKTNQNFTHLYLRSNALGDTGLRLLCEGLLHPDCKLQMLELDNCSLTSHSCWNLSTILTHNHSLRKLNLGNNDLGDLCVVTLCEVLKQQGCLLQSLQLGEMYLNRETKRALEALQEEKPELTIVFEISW

A word on the inhibition: it is how much of the control response was suppressed. `COc1cc(OC)c2c(c1)OCC/C(=C\c1ccc(F)cc1)C2=O`: the viability at 24 h, 5 µM in data set [1] came out at 148%. Also, the inhibition at 5 µM in [2] is 46.3%.
For `COc1cc(OC)c2c(c1)OCC/C(=C\c1c(F)cccc1C(F)(F)F)C2=O` the same measures were 116% and 36.8%.
As to `COc1cc(OC)c2c(c1)OCCC(C(O)c1cccc(C(F)(F)F)c1)C2=O` (stereo unspecified), in [1], the viability at 24 h, 5 µM was 150%. Also, the inhibition at 5 µM in data set [2] amounted to 65.1%.
For `COc1cc(OC)c2c(c1)OCC/C(=C\c1ccc(F)cc1C(F)(F)F)C2=O` the same measures were 114% and 69.5%.
For `COc1cc(OC)c2c(c1)OCC/C(=C\c1cc(F)ccc1F)C2=O` the same measures were 168% and 74.1%.
For `COc1cc(OC)c2c(c1)OCC/C(=C\c1ccccc1C(F)(F)F)C2=O` the same measures were 142% and 74.3%.
As to `COc1cc(OC)c2c(c1)OCCC1=C2NC(N)=NC1c1ccccc1F` (stereo unspecified), the viability at 24 h, 5 µM in data set [1] stood at 143%. For the same molecule, in data set [2], the inhibition at 5 µM was 73.4%.
For `COc1cc(OC)c2c(c1)OCC/C(=C\c1cc(C(F)(F)F)cc(C(F)(F)F)c1)C2=O` the same measures were 95% and 88.6%.
For `COc1cc(OC)c2c(c1)OCCC1=C2NC(N)=NC1c1cccc(F)c1` (stereo unspecified) the same measures were 120% and 74.3%.
For `COc1cc(OC)c2c(c1)OCCC1=C2NC(N)=NC1c1cccc(C(F)(F)F)c1F` (stereo unspecified) the same measures were 111% and 91.5%.
Consider `COc1cc(OC)c2c(c1)OCCC1=C2NC(N)=NC1c1ccc(F)cc1` (stereo unspecified), for which the viability at 24 h, 5 µM in [1] was determined as 157%. In data set [2], the inhibition at 5 µM came to 56.8%.
For `COc1cc(OC)c2c(c1)OCCC1=C2NC(N)=NC1c1c(F)cccc1F` (stereo unspecified) the same measures were 126% and 67.4%.
For `COc1cc(OC)c2c(c1)OCCC1=C2NC(N)=NC1c1cccc(F)c1C(F)(F)F` (stereo unspecified) the same measures were 95.4% and 72.3%.
For `COc1cc(OC)c2c(c1)OCC/C(=C\c1ccc(C(F)(F)F)cc1)C2=O` the same measures were 145% and 65.8%.
`COc1cc(OC)c2c(c1)OCC/C(=C\c1cc(F)cc(F)c1)C2=O`: in [1], the viability at 24 h, 5 µM amounted to 150%. The inhibition at 5 µM in [2] was 73.6%.
For `COc1cc(OC)c2c(c1)OCC/C(=C\c1c(F)cccc1F)C2=O` the same measures were 146% and 62.5%.
For `COc1cncc(-c2nc(N)nc3c2CCc2ccc(F)cc2-3)c1` the same measures were 99.3% and 62.9%.
For `COc1cc(OC)c2c(c1)OCCC1=C2NC(N)=NC1c1ccccc1C(F)(F)F` (stereo unspecified) the same measures were 113% and 70.2%.
For `COc1cc(OC)c2c(c1)OCCC1=C2NC(N)=NC1c1ccc(F)cc1C(F)(F)F` (stereo unspecified), in [1], the viability at 24 h, 5 µM was found to be 87.4%. Also, the inhibition at 5 µM in [2] worked out at 66.4%.
For `COc1cc(OC)c2c(c1)OCC/C(=C\c1cccc(F)c1C(F)(F)F)C2=O` the same measures were 120% and 68.3%.
For `COc1cc(OC)c2c(c1)OCCC1=C2NC(N)=NC1c1cccc(C(F)(F)F)c1` (stereo unspecified) the same measures were 109% and 82.6%.
Consider `COc1cc(OC)c2c(c1)OCCC1=C2NC(N)=NC1c1c(F)cccc1C(F)(F)F` (stereo unspecified), for which the viability at 24 h, 5 µM in [1] came out at 124%. In data set [2], the inhibition at 5 µM is 65.7%.
With `COc1cc(OC)c2c(c1)OCC/C(=C\c1cccc(C(F)(F)F)c1F)C2=O`, in data set [1], the viability at 24 h, 5 µM amounted to 117%. For the same molecule, the inhibition at 5 µM in [2] is 88.7%.
For `COc1cc(OC)c2c(c1)OCC/C(=C\c1cccc(F)c1)C2=O` the same measures were 146% and 69.3%.
As to `S=C(S)N1CCCC1` [PYRROLIDINE DITHIOCARBAMATE], the inhibition at 2.5 µg/mL in data set [3] was 58.4%.
`COc1cc(OC)c2c(c1)OCCC1=C2NC(N)=NC1c1cc(C(F)(F)F)cc(C(F)(F)F)c1` (stereo unspecified): the viability at 24 h, 5 µM in data set [1] was found to be 151%. The inhibition at 5 µM in [2] was determined as 94.5%. Besides, the outcome in data set [4], in data set [5], in [7], in data set [8], in data set [9] and in data set [10] was Active. The outcome in [11], in data set [16], in [17], in data set [18], in data set [19] and in [26] was Active. For the same molecule, the outcome in data set [27], in [28], in [29] and in data set [30] was Active. The result in [6], in data set [12], in [13], in [14], in data set [15] and in data set [20] was inactive. In addition, the result in data set [21] and in data set [22] was inactive. For the same molecule, the inhibition entry in [23], in data set [24] and in [25] was “Active” throughout.
Consider `COc1cc(OC)c2c(c1)OCCC1=C2NC(N)=NC1c1cc(F)ccc1F` (stereo unspecified), for which the viability at 24 h, 5 µM in data set [1] was found to be 156%. For the same molecule, in data set [2], the inhibition at 5 µM is 73.5%.
For `COc1cc(OC)c2c(c1)OCCC1=C2NC(N)=NC1c1cc(F)cc(F)c1` (stereo unspecified) the same measures were 128% and 76.8%.
For `COc1cc(OC)c2c(c1)OCCC1=C2NC(N)=NC1c1ccc(C(F)(F)F)cc1` (stereo unspecified) the same measures were 150% and 72.1%.
For `COc1cc(OC)c2c(c1)OCC/C(=C\c1ccccc1F)C2=O` the same measures were 146% and 62.1%.
